Assay results: ChEMBL document CHEMBL1201862, “PubChem BioAssay data set” (2004)
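Dose response: 5 concentrations. Exposure: 48 h. Format: 96-well plates. Endpoint: linear interpolation; highest concentration if not reached. GI50 marks 50% less growth.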 Activity calls are given as the source filed them. Cut-off read from the data, not from the text of the source: active = GI50 up to about 1.1 µM and inactive = higher.

Legend:
Test in all cases: inhibition of tumour cell growth, NCI panel, 48 h
HCT-15 = system: HCT-15
MDA-MB-231 = system: MDA-MB-231
SK-MEL-2 = system: SK-MEL-2
SF-539 = system: SF-539
LOX IMVI = system: LOX IMVI
SF-268 = system: SF-268
Hs-578T = system: Hs-578T
UACC-62 = system: UACC-62
MCF7 = system: MCF7
HL-60 = system: HL-60
TK-10 = system: TK-10
ACHN = system: ACHN
786-0 = system: 786-0
MOLT-4 = system: MOLT-4
COLO 205 = system: COLO 205
NCI-H226 = system: NCI-H226
KM12 = system: KM12
UACC-257 = system: UACC-257
OVCAR-3 = system: OVCAR-3
Malme-3M = system: Malme-3M

| Structure (SMILES) | GI50 (HCT-15) [µM] | GI50 (MDA-MB-231) | GI50 (SK-MEL-2) | GI50 (SF-539) | GI50 (LOX IMVI) | GI50 (SF-268) | GI50 (Hs-578T) | GI50 (UACC-62) | GI50 (MCF7) | GI50 (HL-60) | GI50 (TK-10) | GI50 (ACHN) | GI50 (786-0) | GI50 (MOLT-4) | GI50 (COLO 205) | GI50 (NCI-H226) | GI50 (KM12) | GI50 (UACC-257) | GI50 (OVCAR-3) | GI50 (Malme-3M) |
| --- | --- | --- | --- | --- | --- | --- | --- | --- | --- | --- | --- | --- | --- | --- | --- | --- | --- | --- | --- | --- |
| Cn1c(=O)c(Br)c(C=O)n(CCO[N+](=O)[O-])c1=O | 4.83 | 2.53 µM (inactive) | 3.59 µM (inactive) | 7.76 µM (inactive) | 2.14 µM (inactive) | 4.28 µM (inactive) | 31 µM (inactive) | 1.23 µM (inactive) | 1.97 µM (inactive) | 1.77 µM (inactive) | 3.86 µM (inactive) | 3.71 µM (inactive) | 5.14 µM (inactive) | 1.87 µM (inactive) | 5.92 µM (inactive) | 51.3 µM (inactive) |  |  |  |  |
| C/C(=N/NC(=O)c1ccncc1)c1ccc(NC(=O)C(=O)Nn2c(S)nc3ccccc3c2=O)cc1 | > 100 | > 100 µM (inactive) | > 100 µM (inactive) | > 100 µM (inactive) | > 100 µM (inactive) | > 100 µM (inactive) | > 100 µM (inactive) | > 100 µM (inactive) | > 100 µM (inactive) |  | > 100 µM (inactive) | > 100 µM (inactive) | > 100 µM (inactive) | > 100 µM (inactive) | > 100 µM (inactive) | > 100 µM (inactive) | > 100 µM (inactive) | > 100 µM (inactive) | > 100 µM (inactive) | > 100 µM (inactive) |
| CC(C)(C)NC(NC(C)(C)C)=C(C(Cl)=C(Cl)Cl)[N+](=O)[O-] | > 100 | > 100 µM (inactive) |  | > 100 µM (inactive) | > 100 µM (inactive) | > 100 µM (inactive) | 29.4 µM (inactive) | > 100 µM (inactive) | > 100 µM (inactive) | > 100 µM (inactive) | > 100 µM (inactive) | > 100 µM (inactive) | > 100 µM (inactive) | > 100 µM (inactive) | > 100 µM (inactive) | > 100 µM (inactive) | > 100 µM (inactive) | 67.6 µM (inactive) | > 100 µM (inactive) | > 100 µM (inactive) |
| N#Cc1sc2c(c1OC(=O)c1ccc(Cl)cc1Cl)c(=O)n(-c1ccccc1)c(=S)n2-c1ccccc1 | 21.5 | 22.8 µM (inactive) |  | 18.2 µM (inactive) | 19.2 µM (inactive) | 29.4 µM (inactive) | 36.7 µM (inactive) | 18.4 µM (inactive) | 23 µM (inactive) | 19.6 µM (inactive) | 33.6 µM (inactive) | 29 µM (inactive) | 26 µM (inactive) | 18.7 µM (inactive) | 19.7 µM (inactive) | 23.8 µM (inactive) | 24 µM (inactive) | 71.9 µM (inactive) | 19.2 µM (inactive) |  |
| Cn1c2ccccc2n2c3ncccc3c(=O)c(C#N)c12 | 6.18 | 17.9 µM (inactive) | 35 µM (inactive) |  | 5.96 µM (inactive) | 18 µM (inactive) | 18.9 µM (inactive) | 8.41 µM (inactive) | 3.81 µM (inactive) | 2.09 µM (inactive) | 50.6 µM (inactive) | 3.09 µM (inactive) | 8.83 µM (inactive) | 3.04 µM (inactive) | 3.91 µM (inactive) | 1.79 µM (inactive) | 14.6 µM (inactive) | 26.5 µM (inactive) | 11 µM (inactive) | 6.04 µM (inactive) |
| O=C(/C=C/c1ccc(OCc2ccccc2)cc1)NCc1ccc(C(=O)NCCc2ccccc2)cc1 | > 100 | > 100 µM (inactive) | > 100 µM (inactive) | > 100 µM (inactive) | > 100 µM (inactive) | > 100 µM (inactive) | > 100 µM (inactive) | > 100 µM (inactive) | > 100 µM (inactive) |  | > 100 µM (inactive) | > 100 µM (inactive) | > 100 µM (inactive) |  | > 100 µM (inactive) | > 100 µM (inactive) | > 100 µM (inactive) | > 100 µM (inactive) | > 100 µM (inactive) | > 100 µM (inactive) |
| NC(CSCc1ccc(I)cc1)C(=O)O (centres undefined) | > 100 | > 100 µM (inactive) | > 100 µM (inactive) |  | > 100 µM (inactive) | > 100 µM (inactive) | 80.7 µM (inactive) | > 100 µM (inactive) | > 100 µM (inactive) | > 100 µM (inactive) | > 100 µM (inactive) | > 100 µM (inactive) | > 100 µM (inactive) | > 100 µM (inactive) | > 100 µM (inactive) | > 100 µM (inactive) | > 100 µM (inactive) | > 100 µM (inactive) | > 100 µM (inactive) | > 100 µM (inactive) |
| N=C(N)N/N=C/c1c(-c2ccc(Cl)c(Cl)c2Cl)nc2sccn12 | 1.63 | 1.21 µM (inactive) | 1.74 µM (inactive) | 3.33 µM (inactive) | 1.64 µM (inactive) | 1.76 µM (inactive) | 1.91 µM (inactive) | 1.44 µM (inactive) | 2.05 µM (inactive) | 1.63 µM (inactive) | 1.4 µM (inactive) | 3.23 µM (inactive) | 1.41 µM (inactive) |  | 1.42 µM (inactive) | 1.68 µM (inactive) | 1.58 µM (inactive) | 1.65 µM (inactive) | 1.57 µM (inactive) |  |
| CCc1nn(CN2CCN(C)CC2)c(=S)n1/N=C\c1ccc(-c2ccc([N+](=O)[O-])cc2)o1 | 61.9 | 39.1 µM (inactive) | 74.3 µM (inactive) |  | 59 µM (inactive) | 37.8 µM (inactive) | 56.9 µM (inactive) | 39 µM (inactive) | 40.5 µM (inactive) | > 100 µM (inactive) | 28.5 µM (inactive) | 36.9 µM (inactive) | 29.9 µM (inactive) | 34.7 µM (inactive) |  | 22.7 µM (inactive) | > 100 µM (inactive) | 57.7 µM (inactive) | 30.6 µM (inactive) | 42 µM (inactive) |
| CO/C=C/C=C(\C#N)C(=O)OC | > 100 | > 100 µM (inactive) | > 100 µM (inactive) | > 100 µM (inactive) | > 100 µM (inactive) | > 100 µM (inactive) | > 100 µM (inactive) | > 100 µM (inactive) | > 100 µM (inactive) |  | > 100 µM (inactive) | > 100 µM (inactive) | > 100 µM (inactive) | 16.9 µM (inactive) | > 100 µM (inactive) | > 100 µM (inactive) | > 100 µM (inactive) | > 100 µM (inactive) | > 100 µM (inactive) | > 100 µM (inactive) |
| Cc1nc(-n2[nH]c(C)c(CCO)c2=O)[nH]c(=O)c1CCO | > 100 | > 100 µM (inactive) |  | > 100 µM (inactive) | > 100 µM (inactive) | > 100 µM (inactive) | > 100 µM (inactive) | > 100 µM (inactive) | > 100 µM (inactive) | > 100 µM (inactive) | > 100 µM (inactive) | > 100 µM (inactive) | > 100 µM (inactive) | > 100 µM (inactive) | > 100 µM (inactive) | > 100 µM (inactive) | > 100 µM (inactive) | > 100 µM (inactive) | > 100 µM (inactive) | < 0.01 µM (active) |
| Clc1nc(-c2ccccc2)nc(Cl)c1Cl | 7.38 | 13.7 µM (inactive) |  | 18.4 µM (inactive) | 2.26 µM (inactive) | 11.6 µM (inactive) | 15 µM (inactive) | 13.7 µM (inactive) | 8.15 µM (inactive) | 13.2 µM (inactive) | 26.7 µM (inactive) | 4.94 µM (inactive) | 8.05 µM (inactive) | 3.1 µM (inactive) | 10.3 µM (inactive) | 12.1 µM (inactive) | 11.6 µM (inactive) | 14.6 µM (inactive) | 8.38 µM (inactive) | 5.31 µM (inactive) |
| COc1ccc(OC)c(N2C(=O)/C(=C\c3ccccc3)SC2c2cc(OC)c(OC)c(OC)c2)c1 (centres undefined) | 58.3 | > 100 µM (inactive) | > 100 µM (inactive) |  | > 100 µM (inactive) | > 100 µM (inactive) | > 78 µM (inactive) | 4.06 µM (inactive) | 3.24 µM (inactive) | 58.9 µM (inactive) | > 100 µM (inactive) | 1.09 µM (active) | > 96.6 µM (inactive) | 52.6 µM (inactive) | > 91.6 µM (inactive) | > 100 µM (inactive) | 61.5 µM (inactive) | > 100 µM (inactive) | 62.4 µM (inactive) | > 100 µM (inactive) |
| O=C(CC(C(=O)c1ccsc1)c1cccs1)c1ccccc1 (centres undefined) | 56.4 | 56.8 µM (inactive) |  | > 100 µM (inactive) | 78 µM (inactive) | > 100 µM (inactive) | > 100 µM (inactive) | 49.2 µM (inactive) | 45.1 µM (inactive) | 71.4 µM (inactive) | > 100 µM (inactive) | > 100 µM (inactive) | > 100 µM (inactive) | 36.2 µM (inactive) | > 100 µM (inactive) | > 100 µM (inactive) | 59 µM (inactive) | > 100 µM (inactive) | > 100 µM (inactive) |  |
| CCn1nc(-c2ccccc2)c2c1N(C)c1ccccc1-n1c(-c3ccccc3)nnc1-2 | 10.4 | 13.4 µM (inactive) | 17.3 µM (inactive) | 22.5 µM (inactive) | 16.6 µM (inactive) | 16.1 µM (inactive) | 19 µM (inactive) | 12.8 µM (inactive) | 5.45 µM (inactive) | > 10 µM (inactive) | 16 µM (inactive) | 13.5 µM (inactive) | 16.3 µM (inactive) | > 10 µM (inactive) | 19.7 µM (inactive) | 17.2 µM (inactive) |  |  |  |  |
